Assay results published in US8623908B2, “Use of tellurium compounds for inhibition of interleukin-converting enzyme” (Biomas Ltd., priority 2004, dated 2014).
Where two headings read alike, the source gives them in different places.

Legend:
[1] = test system: IL-18 secretion by human PBMC; experiment: SAC-induced secretion of IL-18 by PBMC (ELISA); type: cell-based
Method: (§1) Human peripheral blood mononuclear cells (PBMC) were isolated from randomly selected healthy donors by Ficoll-Hypaque (Pharmacia, Piscataway, N.J.) density-gradient centrifugation. PBMC were adjusted to 2.5×10^6 cells/ml and cultured in enriched RPMI 1640 medium (Biological industries, Kibbutz Beit Haemek, Israel) with 10% FCS (Biological industries) at 37° C. and 7% CO2.
(§2) Cells were first treated with various concentrations of AS101 and after 1 hour SAC was added. After 24 hours, supernatants were collected and evaluated for cytokine content. Viability at the end of these experiments, as assessed by tryptan blue exclusion method, was always found to be >95%.
(§3) The R&D Systems (Minneapolis, Minn.) IL-18 and IL-1β ELISA kits were used for the quantitative measurement of these cytokines either in supernatants or in mice sera.
(§4) PBMC (2.5×10^6 cells/ml) were treated with various concentrations of AS101 and after 1 hour were stimulated with SAC (10^−3 V/V). Results represent means±SE of three experiments **p<0.05 decrease vs SAC; *p<0.01 decrease vs SAC. Optimal concentration of SAC for cytokine secretion stimulation was 10^−3 v/v (data not shown).

[2] = test system: IL-18 mRNA in human HaCat keratinocytes; experiment: IL-18 mRNA levels in HaCat cells (RT-PCR); type: cell-based; settings: AS101 1 μg/ml preincubated 2 hours, FIG. 4b
Method: Total RNA was prepared from treated or non treated human keratinocytes by using Tri-reagent (Sigma Aldrich, Rehovot, Israel). Oligo(dt) primed cDNA was synthesized using 2 μg of total RNA. mRNA/cDNA specific cytokine primer pairs were designed and PCR was performed using the following primer pairs (5 μM each): IL-18 (product 558 bp): 178-201 [5′-[…]-3′], 735-759 [5′-[…]-3′]. Cycling conditions were 95° C., 4 minutes; 94° C., 1 minute, 65° C., 1 minute; and 72° C., 1 minute for 29 cycles. GPDH (glyceraldehyde-phosphate-dehydrogenase, product 500 bp) was used as a control: [5′-[…]-3′],[5′-[…]-3′]. The amplified products were visualized using ethidium bromide staining.
Changes at the IL-18 mRNA level were studied when keratinocytes were pretreated with AS101 (1 μg/ml) using optimal concentrations of PMA (10 ng/ml) and LPS (50 ng/ml). Total RNA was isolated from whole cell lysates. GAPDH was used as internal control. Cultured keratinocytes (1×10^6 cells/ml) were either untreated or treated with PMA at 5 ng/ml and 10 ng/ml (line 2 and 3 respectively) and with LPS at 40 ng/ml and 50 ng/ml (line 4 and 5 respectively).
PCR products were amplified for 29 cycles.

metallo proteases = settings: Inorg. Chem. 37: 1704-1712, 1998; cited from earlier work
[3] = test system: active form of IL-18 in human HaCat keratinocytes; experiment: Western blot of intracellular active form of IL-18 in HaCat keratinocytes; type: cell-based; settings: AS101 1 μg/ml preincubated 2 hours, FIG. 3
Method: Human HaCat keratinocytes were adjusted to 1×10^6 cells/ml and cultured at 37° C. and 7% CO2 in enriched Dulbecco's modified Eagle's medium (DMEM)(Biological industries, Kibbutz Beit Haemek, Israel), supplemented with 10% FCS (Biological industries).
Total cell extracts were prepared by suspension in ice-cold lysis buffer containing 50 mM Tris (pH 8.0), 150 mM NaCl, 1% NP-40, 0.1% SDS, 5 mM EDTA, 0.2 mM PMSF, 50 mM NaF, […] sodium vanadate, […]. Cell lysates were boiled for 5 min and electrophoresed on 15% SDS-PAGE and were then blotted with monoclonal IL-18 antibodies (R&D Systems, Minneapolis, Minn.). Blots were developed using horseradish peroxidase-conjugated secondary antibodies and the ECL detection system (Amersham Pharmacia Biotech).
IL-18 is […] produced by keratinocytes after treatment with LPS or PMA. In order to determine whether the inhibitory effect of AS101 on the formation of the active form of IL-18 is consistent and will repeat itself in another type of cell culture, Western Blot analysis of total cellular proteins from human HaCat keratinocytes was performed using anti-IL-18 antibodies. […]
Cultured keratinocytes (1×10^6 cells/ml) were preincubated for 2 hours with AS101 (1 μg/ml) and then treated with PMA or LPS. Expression of IL-18 was assessed by WB analysis while α-tubulin was used as internal control. […]

cysteine proteases = settings: via a catalytic thiol oxidation; Inorg. Chem. 37: 1704-1712, 1998; cited from earlier work
LPS-induced septic mice = experiment: Survival of LPS-induced septic mice; type: in vivo
Method: (§5) For serum cytokine evaluation, PBS or AS101 was injected intraperitoneally (i.p.) 2 hours following LPS treatment. For survival experiments AS101 was injected i.p. daily at various concentrations starting 1 hour and up to 24 hours following LPS until the end of the experiment.
Data are presented as mean±SE. For comparisons of means of the various groups, the pairwise t test was used. Survival curves were statistically analyzed by comparing the cumulative percentage of survival using the Gehan-Wilcoxon test.
In order to study the relationship between the above in vitro and in vivo results and the effect of AS101 on survival of mice following induction of sepsis, AS101 at a concentration of 10 μg/mouse was injected into LPS-induced septic mice at various time points after LPS (0.35 mg/mouse) treatment. Survival was monitored for 9 days.

[4] = test system: IL-18 secretion by human PBMC; experiment: Role of IFN-γ: IL-18 inhibition in PBMC with IFN-γ neutralizing antibody; type: cell-based; settings: anti IFN-γ antibody 0.1 μg/ml 2 hours before AS101 0.5 μg/ml; SAC; 24 hours; FIG. 6
Method: as §3
In order to investigate the possibility that enhancement of IFN-γ levels by AS101 might have a synergistic effect on IL-18 inhibition, rhIFN-γ neutralizing antibody (0.1 μg/ml) was delivered to PBMC (2.5×10^6 cells/ml) 2 hours before AS101 (0.5 μg/ml). SAC (10^−3 v/v) was added 1 hour following AS101. Supernatants were collected after 24 hours and evaluated for IL-18 levels.

[5] = test system: IL-18 secretion by human PBMC; experiment: Role of nitric oxide: IL-18 inhibition in PBMC with L-NAME; type: cell-based; settings: L-NAME 20 nM 2 hours before AS101 0.5 μg/ml; SAC; 24 hours; FIG. 5
Method: as §3
L-NAME/D-NAME (20 nM) were delivered to PBMC (2.5×10^6 cells/ml)2 hours before AS101 (0.5 μg/ml). SAC (10^−3 v/v) was added 1 hour following AS101. Supernatants were collected after 24 hours and evaluated for IL-18 levels.

aspartic proteases = settings: Inorg. Chem. 37: 1704-1712, 1998; cited from earlier work
serine proteases = settings: Inorg. Chem. 37: 1704-1712, 1998; cited from earlier work
[6] = biological target: T1, caspase-1 (ICE-Interleukin-β-converting enzyme), rCaspase-1 (Homo sapiens, UniProt P29466); experiment: Caspase-1 activity enzymatic assay with colorimetric substrate Ac-YVAD-pNA; type: biochemical; settings: AS101 2.5, 5, 10 μM; 1 hour, 30° C., 405 nm; FIG. 1
T1 construct: purchased Biomol International Industries L.P. Canada
T1 sequence (P29466 120-297 limits assumed): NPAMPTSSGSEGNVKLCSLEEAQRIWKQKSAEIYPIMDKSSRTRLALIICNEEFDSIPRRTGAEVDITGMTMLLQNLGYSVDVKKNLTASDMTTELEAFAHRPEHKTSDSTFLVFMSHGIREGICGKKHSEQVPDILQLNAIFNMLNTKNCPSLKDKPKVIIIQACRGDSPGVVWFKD
T1 sequence (P29466 317-404 limits assumed): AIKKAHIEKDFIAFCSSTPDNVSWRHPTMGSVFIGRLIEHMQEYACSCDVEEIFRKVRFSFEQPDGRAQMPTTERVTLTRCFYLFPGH
Method: DTT, which is present in the commercial enzyme solution, interacts with AS101 and thus would interfere with the inhibition studies. Therefore removal of DTT from the enzyme solution prior to the enzymatic assay was necessary. Gel permeation chromatography was carried out at 4° C. 50 μl solution of commercial activated rCaspase-1 was loaded on a 1×15 cm Sephadex G-15 column (Pharmacia), preequilibrated with assay buffer containing: 50 mM Hepes, 100 mM NaCl, 0.1% CHAPS, 1 mM EDTA, 10% Glycerol at pH 7.4. The enzyme was eluted with the same buffer (degassed) at 0.5 ml/minute and 500 μl fractions were collected. The enzyme-substrate reaction was measured continuously with 1 min. intervals for a total time of 1 hour at 30° C. and was read at 405 nm. The total volume of the reaction was 100 μl and contained as following: 50 μl rCaspase-1 (0.8 U/μl), 25 μl colorimetric substrate (Ac-YVAD-pNA, 200 μM), 25 μl of AS101 at various concentrations (2.5 μM, 5 μM, 10 μM) in assay buffer.
AS101 was tested for its possible inhibitory activity towards a member of the cysteine protease family, caspase-1 (ICE-Interleukin-β-converting enzyme). The enzymatic reaction was carried out with caspase-1 specific colorimetric substrate, Ac-YVAD-pNA, and in the absence or the presence of AS101 at different concentrations. The enzyme activity was tested for 1 hour and measured at 405 nm. […]

IL-18 = IL-18 levels in LPS-induced septic mice; type: in vivo, c57BL/6J mice; settings: 24 hours after LPS, FIG. 7a
Method: as §5, §3
(§6) PBS (control) and AS101 at various concentrations were injected into c57BL/6J mice 2 hours following induction of sepsis by LPS (0.5 mg/mouse) treatment. 24 hours after LPS injection, mice were sacrificed and evaluated for plasma concentration of these cytokines in order to determine whether AS101 can inhibit production of IL-18 and IL-1β in vivo.

PBMC = experiment: Viability of treated cells by trypan blue exclusion; type: cell-based, human; settings: cells treated with various concentrations of AS101, SAC, 24 hours
Method: as §2

[7] = test system: IL-1β secretion by human PBMC; experiment: SAC-induced secretion of IL-1β by PBMC (ELISA); type: cell-based
Method: as §1, §2, §3, §4

[8] = rats, cited from earlier work
IL-1β = IL-1β levels in LPS-induced septic mice; type: in vivo, c57BL/6J mice; settings: 24 hours after LPS, FIG. 7b
Method: as §5, §3, §6

[9] = test system: human HaCat keratinocytes; experiment: IL-18 production in HaCat keratinocytes after AS101 treatment alone; type: cell-based
Method: IL-18 production has a self-regulating negative feedback loop. This cytokine can down regulate its own production by inducing the production of a native inhibitor, IL-18BP, through an IFN-γ dependent mechanism. Since AS101 has been previously shown to increase IFN-γ due to the direct inhibition of the […], studies were carried out to determine whether the inhibitory effect of AS101 results from induction of IL-18BP directly and/or whether neutralization of IFN-γ would abrogate the inhibitory effect of AS101 on IL-18.

[10] = AS101 5 μg/mouse i.p. 2 hours after LPS 0.5 mg/mouse
[11] = AS101 10 μg/mouse i.p. 2 hours after LPS 0.5 mg/mouse

Cl[TeH]1(Cl)(Cl)OCCO1 [AS101, ammonium trichloro(dioxyethylene-O,O′)tellurate]
SAC-induced secretion levels of IL-18 ([1]; AS101 1 hour before SAC 10^-3 v/v, after 24 hours, FIG. 2a): decrease SAC-induced secretion levels | concentration from which the decrease in IL-18 secretion is significant (p<0.05) ([1]; SAC, 24 hours): ≥ 0.5 µg/mL | IL-18 mRNA levels ([2]; then LPS 50 ng/ml): Changes in mRNA levels were not detected | IL-18 mRNA levels ([2]; then PMA 10 ng/ml): Changes in mRNA levels were not detected | inhibition of metallo proteases (metallo proteases): no inhibition | amounts of the active form of IL-18 ([3]; then LPS 50 ng/ml): produced a decrease in the amounts of the active form of IL-18 | amounts of the active form of IL-18 ([3]; then PMA 10 ng/ml): produced a decrease in the amounts of the active form of IL-18 | inhibition of cysteine proteases (cysteine proteases): inhibits cysteine proteases | effect on survival of septic mice (LPS-induced septic mice; AS101 10 μg/mouse i.p. daily, injected after LPS 0.35 mg/mouse, survival monitored 9 days, FIG. 8): beneficial effect | optimal dose for survival (LPS-induced septic mice; injected 6 hours following LPS and thereafter every day): 10 μg/mouse | IL-18 inhibition after neutralization of IFN-γ [4]: does not abrogate IL-18 inhibition | inhibitory effect on IL-18 secretion in the presence of NOS inhibitor L-NAME [5]: not diminished | inhibition of aspartic proteases (aspartic proteases): no inhibition | inhibition of serine proteases (serine proteases): no inhibition | effect on ICE activity (percent residual enzymatic activity) [6]: inhibits ICE activity directly, in a concentration-dependant manner | IL-18 level in septic mice (IL-18; [10]): significantly inhibited | IL-18 level in septic mice (IL-18; [11]): significantly inhibited | viability at the end of the experiments (PBMC): > 95% | SAC-induced secretion levels of IL-1β ([7]; AS101 1 hour before SAC 10^-3 v/v, after 24 hours, FIG. 2b): decrease SAC-induced secretion levels | concentration from which the decrease in IL-1β secretion is significant (p<0.05) ([7]; SAC, 24 hours): ≥ 0.5 µg/mL | LD50 relative to the immunologically effective dose ([8]; intramuscular administration): 500-1000 folds | LD50 relative to the immunologically effective dose ([8]; intravenous administration): 500-1000 folds | IL-1β level in septic mice (IL-1β; [10]): significantly inhibited | IL-1β level in septic mice (IL-1β; [11]): significantly inhibited | induction of IL-18 production by AS101 treatment [9]: not able to induce IL-18 production
